Legend:
[1] = 4-HNE trapping experiment (aldehyde adduct formation, Example 6); settings: 4-HNE 1.5 eq; 20% Captisol in phosphate buffer pH 7.2; 24-h time period; LCMS
Experimental: Each of compounds ADX-102, I-32, I-8, I-29, and I-31 ([…]) was tested for reactivity using 4-hydroxynonenal (4-HNE) (1.5 eq) as a model aldehyde. ADX-102 is also known as Reproxalap. Each compound was dissolved in a 20% solution of Captisol in phosphate buffer (1 mL, pH=7.2). Then, 4-HNE in ethanol (10 mg/mL solution) was added to the solution. The ensuing reaction was monitored by LCMS analysis. The relative ratio of experimental compound/4-HNE adduct to final composition was plotted against time to provide an indication of reaction rate and level of reaction completeness.

[2] = tested on: IL-2; test: Acute LPS-induced sepsis in C57BL/6 mice: IL-2 cytokine detection assay; type: in vivo; settings: 200 mpk PO; LPS-challenged mice, plasma at 6.5 h; unpaired t-test vs vehicle
Text: FIG. 7 is a graph showing the results of an IL-2 cytokine detection assay in samples collected from mouse subjects after administration of compounds of the present disclosure.
The primary objective of this study was to collect plasma samples of lipopolysaccharide (LPS) challenged C57BL/6 mice after dose of test compounds to provide a cytokine profile as impacted by prophylactic treatments. This study models acute sepsis, which is a systemic inflammatory syndrome initiated by Gram-negative and Gram-positive bacteria and fungi which infect the lungs, abdomen, bloodstream, and renal or genitourinary tracts. Sepsis patients ultimately die of multiorgan failure which is caused by extensive tissue hypo-oxygenation due to ongoing microvascular leakage, disseminated intravascular coagulation, compromised energy production, and metabolic alterations. Sepsis is characterized by an early systemic inflammatory response phase featuring symptoms, such as tachycardia, fever, hyperventilation, and activation of the complement and coagulation cascades. However, it is now appreciated that a compensatory anti-inflammatory response phase follows, characterized by neuroendocrine-mediated immunosuppression. […]
(§1) A 32-plex cytokine panel was obtained from Eve Technologies. Each cytokine was assessed based against a 7 point curve range in duplicate. […]

[3] = tested on: IL-6; test: Acute LPS-induced sepsis in C57BL/6 mice: IL-6 cytokine detection assay; type: in vivo; settings: 200 mpk PO; LPS-challenged mice, plasma at 6.5 h; unpaired t-test vs vehicle
Text: FIG. 11 is a graph showing the results of an IL-6 cytokine detection assay in samples collected from mouse subjects after administration of compounds of the present disclosure.
(§2) The primary objective of this study was to collect plasma samples of lipopolysaccharide (LPS) challenged C57BL/6 mice after dose of test compounds to provide a cytokine profile as impacted by prophylactic treatments. This study models acute sepsis, which is a systemic inflammatory syndrome initiated by Gram-negative and Gram-positive bacteria and fungi which infect the lungs, abdomen, bloodstream, and renal or genitourinary tracts. Sepsis patients ultimately die of multiorgan failure which is caused by extensive tissue hypo-oxygenation due to ongoing microvascular leakage, disseminated intravascular coagulation, compromised energy production, and metabolic alterations. Sepsis is characterized by an early systemic inflammatory response phase featuring symptoms, such as tachycardia, fever, hyperventilation, and activation of the complement and coagulation cascades. However, it is now appreciated that a compensatory anti-inflammatory response phase follows, characterized by neuroendocrine-mediated immunosuppression. Since these processes are the result of interaction between cells of inflammation and organs, investigation of the treatment of this syndrome requires the use of intact animal models. The use of ten mice per group allows useful statistical modelling of the results.
(§3) For the data shown in Table 2A, 103 mice (female, 18-22 gram, C57BL/6) were purchased from ENVIGO. The mice were housed in 20 cages of 5 mice per cage with 1 cage of 3 mice as extra. The cages had filter tops and autoclaved bedding, and the animals were placed in quarantine with daily inspection. The treatment groups are detailed in Table 2A below. 10 mice were included in each group. The mice were dosed by oral gavage (PO) at 10 ml/kg as per the table below. MC=methyl cellulose.
as §3, with “2B, 185” for “2A, 103”, “37” for “20”, “cage.” for “cage with 1 cage of 3 mice as extra.”, “2B” for “2A”, “(P0)” for “(PO)”
(§4) At T=0 h, the mice were dosed with one of the test compounds as described in the above table.
(§5) At T=0.5 h, the mice were injected IP with 1.5 mg/kg […] (Sigma).
(§6) At T=6.5 h, all mice were anesthetized and exsanguinated into pre-chilled EDTA-treated tubes. […]
as §1

[4] = tested on: IL-9; test: Acute LPS-induced sepsis in C57BL/6 mice: IL-9 cytokine detection assay; type: in vivo; settings: 200 mpk PO; LPS-challenged mice, plasma at 6.5 h; unpaired t-test vs vehicle
Text: FIG. 13 is a graph showing the results of an IL-9 cytokine detection assay in samples collected from mouse subjects after administration of compounds of the present disclosure.
as §2
as §3, with “cellulose. […]” for “cellulose.”
as §1

[5] = tested on: IL-12(p70); test: Acute LPS-induced sepsis in C57BL/6 mice: IL-12(p70) cytokine detection assay; type: in vivo; settings: 200 mpk PO; LPS-challenged mice, plasma at 6.5 h; unpaired t-test vs vehicle
Text: FIG. 16 is a graph showing the results of an IL-12(p70) cytokine detection assay in samples collected from mouse subjects after administration of compounds of the present disclosure.
as §2
as §3, with “The mice were dosed by oral gavage (PO) at 10 ml/kg as per the table below.” left out
as §3, with “2B, 185” for “2A, 103”, “37” for “20”, “cage.” for “cage with 1 cage of 3 mice as extra.”, “2B” for “2A”, “(P0)” for “(PO)”
as §4, §5
(§7) At T=6.5 h, all mice were anesthetized and exsanguinated into pre-chilled EDTA-treated tubes. The blood was processed to plasma which was stored in labeled 0.5 polypropylene snap-cap tubes (0.5 mL Eppendorf Safe-Lock Tubes (Fisher Scientific) at −80° C.
(§8) Preparation of vehicle: 1.0 gram of methyl cellulose (Sigma) was dissolved in 200 mL of water (USP purified) to make a solution of 0.5% methyl cellulose in water. Preparation of LPS solution: 6 mg of LPS (from Escherichia Coli 055:B5, Cat #L2880, Sigma Lot #057m4013) was dissolved in 20 ml of saline to give a LPS solution of 0.3 mg/ml. All mice were injected with 5 ml/kg (1.5 mg/kg) at the scheduled time by intraperitoneal injection.
A 32-plex cytokine panel was obtained from Eve Technologies. Each cytokine was assessed based against a 7 point curve range in duplicate. The average of the two replicate analyses was used for statistics. Unpaired t-tests were performed using Excel™ contrasting vehicle against each treatment group. One star indicates P<0.05. […]

[6] = tested on: KC; test: Acute LPS-induced sepsis in C57BL/6 mice: KC cytokine detection assay; type: in vivo; settings: 200 mpk PO; LPS-challenged mice, plasma at 6.5 h; unpaired t-test vs vehicle
Text: FIG. 20 is a graph showing the results of a KC cytokine detection assay in samples collected from mouse subjects after administration of compounds of the present disclosure.
as §2, §3
as §3, with “2B, 185” for “2A, 103”, “37” for “20”, “cage.” for “cage with 1 cage of 3 mice as extra.”, “2B” for “2A”, “(P0)” for “(PO)”
as §4, §5, §7, §8
A 32-plex cytokine panel was obtained from Eve Technologies. Each cytokine was assessed based against a 7 point curve range in duplicate. The average of the two replicate analyses was used for statistics. Unpaired t-tests were performed using Excel™ contrasting vehicle against each treatment group. One star indicates P<0.05. Two stars indicates P<0.01. Three stars indicates P<0.001. Four stars indicates P<0.0001. Most, but not all, statistically significant results are indicated with star(s).

[7] = tested on: leukemia inhibitory factor (LIF); test: Acute LPS-induced sepsis in C57BL/6 mice: leukemia inhibitory factor (LIF) cytokine detection assay; type: in vivo; settings: 200 mpk PO; LPS-challenged mice, plasma at 6.5 h; unpaired t-test vs vehicle
Text: FIG. 21 is a graph showing the results of a leukemia inhibitory factor (LIF) cytokine detection assay in samples collected from mouse subjects after administration of compounds of the present disclosure. LIF is an interleukin 6 class cytokine that affects cell growth by inhibiting differentiation.
as §2, §3
as §3, with “2B, 185” for “2A, 103”, “37” for “20”, “cage.” for “cage with 1 cage of 3 mice as extra.”, “2B” for “2A”, “(P0)” for “(PO)”
as §4, §5, §7, §8, §1

[8] = tested on: MIP2(CXCL2); test: Acute LPS-induced sepsis in C57BL/6 mice: MIP2(CXCL2) cytokine detection assay; type: in vivo; settings: 200 mpk PO; LPS-challenged mice, plasma at 6.5 h; unpaired t-test vs vehicle
Text: FIG. 27 is a graph showing the results of a MIP2(CXCL2) cytokine detection assay in samples collected from mouse subjects after administration of compounds of the present disclosure.
as §2
as §3, with “The mice were dosed by oral gavage (PO) at 10 ml/kg as per the table below.” left out
as §3, with “2B, 185” for “2A, 103”, “37” for “20”, “cage.” for “cage with 1 cage of 3 mice as extra.”, “2B” for “2A”, “(P0)” for “(PO)”
as §4, §5, §6, §1

4-HNE binding (rate of formation of aldehyde adduct) [1]: the best binding
Structure (SMILES): CC(C)(O)c1cc2c(cc1N)OCO2 [Compound I-29]
IL-2: significant cytokine change vs. vehicle [2]: ** (Two stars indicates P<0.01) | IL-6: significant cytokine change vs. vehicle [3]: ** (Two stars indicates P<0.01) | IL-9: significant cytokine change vs. vehicle [4]: *** (Three stars indicates P<0.001) | IL-12 (p70): significant cytokine change vs. vehicle [5]: **** (Four stars indicates P<0.0001) | KC: significant cytokine change vs. vehicle [6]: * (One star indicates P<0.05) | LIF: significant cytokine change vs. vehicle [7]: **** (Four stars indicates P<0.0001) | MIP-2: significant cytokine change vs. vehicle [8]: * (One star indicates P<0.05)

Source: US20240383870A1, “HETEROCYCLIC ALDEHYDE TRAPPING COMPOUNDS AND USES THEREOF” (Aldeyra Therapeutics, Inc., priority 2021, published 2024)
